Laboratory results: patent US8163771B2, “11 β-HSD1 modulators” (Exelixis, Inc., priority 2008, dated 2012)

Each compound was assayed against T1, recombinant human 11 β-HSD1 (Homo sapiens, UniProt P28845) (assay: 11 β-HSD1 SPA Assay (Scintillation Proximity Assay)).
T1 construct: made in house; host or cells: E. coli
Format: biochemical
In short: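 E. coli-expressed human enzyme (30-100 nM) with tritiated cortisone 40 nM and NADPH 1 mM in HEPES buffer pH7.4, 2 hours at room temperature. Stopped with protein A SPA beads carrying anti-cortisol antibody and glycyrrhetinic acid; counted after overnight incubation. IC50 from percent inhibition between no-enzyme and no-compound signals.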

T1 sequence (P28845 whole entry): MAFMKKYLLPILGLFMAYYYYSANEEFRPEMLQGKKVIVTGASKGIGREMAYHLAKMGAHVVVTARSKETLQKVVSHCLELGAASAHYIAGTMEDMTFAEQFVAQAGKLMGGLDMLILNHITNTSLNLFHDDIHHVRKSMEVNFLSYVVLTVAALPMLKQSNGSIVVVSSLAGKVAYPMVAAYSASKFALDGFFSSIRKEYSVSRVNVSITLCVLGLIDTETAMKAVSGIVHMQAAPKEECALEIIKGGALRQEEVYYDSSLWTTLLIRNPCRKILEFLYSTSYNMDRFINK

With CC(C)(Oc1ncc(Cl)cc1F)C(=O)N[C@H]1C[C@H]2CC[C@@H](C1)N2c1ccc(S(N)(=O)=O)cn1 [Example 247, N-{8-[5-(aminosulfonyl)pyridin-2-yl]-8-azabicyclo[3.2.1]oct-3-endo-yl}-2-[(5-chloro-3-fluoropyridin-2-yl)oxy]-2-methylpropanamide] as the compound, how does the IC50 read?
The IC50 was less than 2000 nM.

Which IC50 does the source give for CC(C)(Oc1ncc(C(F)(F)F)cc1Cl)C(=O)N[C@H]1C[C@H]2CC[C@@H](C1)N2c1ccc(S(C)(=O)=O)cn1 [Example 248, 2-{[3-chloro-5-(trifluoromethyl)pyridin-2-yl]oxy}-2-methyl-N-{8-[5-(methylsulfonyl)pyridin-2-yl]-8-azabicyclo[3.2.1]oct-3-endo-yl}propanamide] here?
Its IC50 is less than 2000 nM.

How did the IC50 turn out when CC(C)(Oc1ncc(C(F)(F)F)cc1Cl)C(=O)N[C@H]1C[C@H]2CC[C@@H](C1)N2c1ccc(S(C)(=O)=O)cc1 [Example 249, 2-{[3-chloro-5-(trifluoromethyl)pyridin-2-yl]oxy}-2-methyl-N-{8-[4-(methylsulfonyl)phenyl]-8-azabicyclo[3.2.1]oct-3-endo-yl}propanamide] was run?
The IC50 was less than 2000 nM.

How did the IC50 turn out when CC(C)(Oc1ccc(F)cc1C(F)(F)F)C(=O)N[C@H]1C[C@H]2CC[C@@H](C1)N2c1ccc(S(C)(=O)=O)cc1 [Example 250, 2-{[4-fluoro-2-(trifluoromethyl)phenyl]oxy}-2-methyl-N-{8-[4-(methylsulfonyl)phenyl]-8-azabicyclo[3.2.1]oct-3-endo-yl}propanamide] was run?
The IC50 was less than 200 nM.

For CC(C)(Oc1c(Cl)cc(F)cc1C(F)(F)F)C(=O)N[C@H]1C[C@H]2CC[C@@H](C1)N2c1ccc(S(N)(=O)=O)cn1 [Example 251, N-{8-[5-(aminosulfonyl)pyridin-2-yl]-8-azabicyclo[3.2.1]oct-3-endo-yl}-2-{[2-chloro-4-fluoro-6-(trifluoromethyl)phenyl]oxy}-2-methylpropanamide], which IC50 is on record?
Its IC50 is less than 200 nM.

With CC(C)(Oc1c(Cl)cc(F)cc1C(F)(F)F)C(=O)N[C@H]1C[C@H]2CC[C@@H](C1)N2c1ccc(S(C)(=O)=O)cc1 [Example 252, 2-{[2-chloro-4-fluoro-6-(trifiuoromethyl)phenyl]oxy}-2-methyl-N-{8-[4-(methylsulfonyl)phenyl]-8-azabicyclo[3.2.1]oct-3-endo-yl}propanamide] as the compound, how does the IC50 read?
The IC50 was less than 200 nM.

With COc1ccc(OC(C)(C)C(=O)NC2CC3CCC(C2)N3c2ccc(S(C)(=O)=O)cn2)c(Cl)c1 (stereo not drawn) [Example 253, 2-{[2-chloro-4-(methyloxy)phenyl]oxy}-2-methyl-N-{8-[5-(methylsulfonyl)pyridin-2-yl]-8-azabicyclo[3.2.1]oct-3-endo-yl}propanamide] as the compound, how does the IC50 read?
The IC50 was less than 200 nM.

For COc1ccc(OC(C)(C)C(=O)N[C@H]2C[C@H]3CC[C@@H](C2)N3c2ccc(S(C)(=O)=O)cc2)c(Cl)c1 [Example 254, 2-{[2-chloro-4-(methyloxy)phenyl]oxy}-2-methyl-N-{8-[4-(methylsulfonyl)phenyl]-8-azabicyclo[3.2.1]oct-3-endo-yl}propanamide], which IC50 is on record?
Its IC50 is less than 200 nM.

Which IC50 does the source give for CC(C)(Oc1ccccc1C(F)(F)F)C(=O)N[C@H]1C[C@H]2CC[C@@H](C1)N2c1ccc(S(C)(=O)=O)cn1 [Example 255, 2-methyl-N-{8-[5-(methylsulfonyl)pyridin-2-yl]-8-azabicyclo[3.2.1]oct-3-endo-yl}-2-{[2-(trifluoromethyl)phenyl]oxy}propanamide] here?
The IC50 was less than 200 nM.

Which IC50 does the source give for CC(C)(Oc1ccccc1C(F)(F)F)C(=O)N[C@H]1C[C@H]2CC[C@@H](C1)N2c1ccc(S(N)(=O)=O)cn1 [Example 256, N-{8-[5-(aminosulfonyl)pyridin-2-yl]-8-azabicyclo[3.2.1]oct-3-endo-yl}-2-methyl-2-{[2-(trifluoromethyl)phenyl]oxy}propanamide] here?
Its IC50 is less than 200 nM.

How did the IC50 turn out when CC(C)(Oc1ccccc1C(F)(F)F)C(=O)N[C@H]1C[C@H]2CC[C@@H](C1)N2c1ccc(S(C)(=O)=O)cc1 [Example 257, 2-methyl-N-{8-[4-(methylsulfonyl)phenyl]-8-azabicyclo[3.2.1]oct-3-endo-yl}-2-{[2-(trifluoromethyl)phenyl]oxy}propanamide] was run?
The IC50 was less than 200 nM.

How did the IC50 turn out when CC(C)(Oc1c(F)cc(F)cc1F)C(=O)N[C@H]1C[C@H]2CC[C@@H](C1)N2c1ccc(S(C)(=O)=O)cn1 [Example 258, 2-methyl-N-{8-[5-(methylsulfonyl)pyridin-2-yl]-8-azabicyclo[3.2.1]oct-3-endo-yl}-2-[(2,4,6-trifluorophenyl)oxy]propanamide] was run?
The IC50 was less than 200 nM.

Which IC50 does the source give for CC(C)(Oc1c(F)cc(F)cc1F)C(=O)N[C@H]1C[C@H]2CC[C@@H](C1)N2c1ccc(S(N)(=O)=O)cn1 [Example 259, N-{8-[5-(aminosulfonyl)pyridin-2-yl]-8-azabicyclo[3.2.1]oct-3-endo-yl}-2-methyl-2-[(2,4,6-trifluorophenyl)oxy]propanamide] here?
Its IC50 is less than 200 nM.

With CC(C)(Oc1c(F)cc(F)cc1F)C(=O)N[C@H]1C[C@H]2CC[C@@H](C1)N2c1ccc(S(C)(=O)=O)cc1 [Example 260, 2-methyl-N-{8-[4-(methylsulfonyl)phenyl]-8-azabicyclo[3.2.1]oct-3-endo-yl}-2-[(2,4,6-trifluorophenyl)oxy]propanamide] as the compound, how does the IC50 read?
Its IC50 is less than 200 nM.

CC(C)(Oc1cc(F)c(Cl)cc1Cl)C(=O)N[C@H]1C[C@H]2CC[C@@H](C1)N2c1ccc(S(N)(=O)=O)cn1 [Example 261, N-{8-[5-(aminosulfonyl)pyridin-2-yl]-8-azabicyclo[3.2.1]oct-3-endo-yl}-2-[(2,4-dichloro-5-fluorophenyl)oxy]-2-methylpropanamide] was tested. Which IC50 did it give?
The IC50 was less than 200 nM.

Which IC50 does the source give for CC(C)(Oc1cc(F)c(F)cc1Cl)C(=O)N[C@H]1C[C@H]2CC[C@@H](C1)N2c1ccc(S(N)(=O)=O)cn1 [Example 262, N-{8-[5-(aminosulfonyl)pyridin-2-yl]-8-azabicyclo[3.2.1]oct-3-endo-yl}-2-[(2-chloro-4,5-difluorophenyl)oxy]-2-methylpropanamide] here?
The IC50 was less than 200 nM.

Which IC50 does the source give for CC(C)(Oc1ccc(Cl)cc1C(F)(F)F)C(=O)N[C@H]1C[C@H]2CC[C@@H](C1)N2c1ccc(S(C)(=O)=O)cn1 [Example 263, 2-{[4-chloro-2-(trifluoromethyl)phenyl]oxy}-2-methyl-N-{8-[5-(methylsulfonyl)pyridin-2-yl]-8-azabicyclo[3.2.1]oct-3-endo-yl}propanamide] here?
The IC50 was less than 200 nM.

With CC(C)(Oc1ccc(F)cc1)C(=O)N[C@H]1C[C@H]2CC[C@@H](C1)N2c1ccc(S(N)(=O)=O)cn1 [Example 264, N-{8-[5-(aminosulfonyl)pyridin-2-yl]-8-azabicyclo[3.2.1]oct-3-endo-yl}-2-[(4-fluorophenyl)oxy]-2-methylpropanamide] as the compound, how does the IC50 read?
Its IC50 is less than 200 nM.

With CC(C)(Oc1ccc(F)cc1Cl)C(=O)N[C@H]1C[C@H]2CC[C@@H](C1)N2c1ccc(C(=O)NC2CC2)cn1 [Example 265, 6-[3-endo-({2-[(2-chloro-4-fluorophenyl)oxy]-2-methylpropanoyl}amino)-8-azabicyclo[3.2.1]oct-8-yl]-N-cyclopropylpyridine-3-carboxamide] as the compound, how does the IC50 read?
Its IC50 is less than 200 nM.

With CC(C)(Oc1ccc(-c2ccccc2)cc1Cl)C(=O)N[C@H]1C[C@H]2CC[C@@H](C1)N2c1ccc(C(N)=O)cn1 [Example 266, 6-[3-endo-({2-[(3-chlorobiphenyl-4-yl)oxy]-2-methylpropanoyl}amino)-8-azabicyclo[3.2.1]oct-8-yl]pyridine-3-carboxamide] as the compound, how does the IC50 read?
Its IC50 is less than 200 nM.

With CC(C)(Oc1cc(F)ccc1C(F)(F)F)C(=O)N[C@H]1C[C@H]2CC[C@@H](C1)N2c1ccc(S(C)(=O)=O)cn1 [Example 267, 2-{[5-fluoro-2-(trifluoromethyl)phenyl]oxy}-2-methyl-N-{8-[5-(methylsulfonyl)pyridin-2-yl]-8-azabicyclo[3.2.1]oct-3-endo-yl}propanamide] as the compound, how does the IC50 read?
Its IC50 is less than 200 nM.

Which IC50 does the source give for CC(C)(Oc1ccc(Cl)cc1Cl)C(=O)NC1CC2CCC(C1)N2c1ccc(C(=O)NC2CC2(F)F)cn1 (stereo not drawn) [Example 268, 6-[3-endo-({2-[(2,4-dichlorophenyl)oxy]-2-methylpropanoyl}amino)-8-azabicyclo[3.2.1]oct-8-yl]-N-(2,2-difluorocyclopropyl)pyridine-3-carboxamide] here?
The IC50 was less than 200 nM.

CC(C)(Oc1ccc(F)cc1S(C)(=O)=O)C(=O)N[C@H]1C[C@H]2CC[C@@H](C1)N2c1ccc(C(N)=O)cn1 [Example 269, 6-{3-endo-[(2-{[4-fluoro-2-(methylsulfonyl)phenyl]oxy}-2-methylpropanoyl)amino]-8-azabicyclo[3.2.1]oct-8-yl}pyridine-3-carboxamide] was tested. Which IC50 did it give?
The IC50 was less than 200 nM.

How did the IC50 turn out when CC(C)(Oc1cc(Cl)c(F)cc1Cl)C(=O)N[C@H]1C[C@H]2CC[C@@H](C1)N2c1ccc(NS(C)(=O)=O)cn1 [Example 270, 2-[(2,5-dichloro-4-fluorophenyl)oxy]-2-methyl-N-(8-{5-[(methylsulfonyl)amino]pyridin-2-yl}-8-azabicyclo[3.2.1]oct-3-endo-yl)propanamide] was run?
The IC50 was less than 200 nM.

For CC(C)(Oc1ccc2ccccc2c1Cl)C(=O)N[C@H]1C[C@H]2CC[C@@H](C1)N2c1ccc(C(N)=O)cn1 [Example 271, 6-[3-endo-({2-[(1-chloronaphthalen-2-yl)oxy]-2-methylpropanoyl}amino)-8-azabicyclo[3.2.1]oct-8-yl]pyridine-3-carboxamide], which IC50 is on record?
Its IC50 is less than 200 nM.

CC(C)(Oc1ccc(F)c(C(F)(F)F)c1)C(=O)N[C@H]1C[C@H]2CC[C@@H](C1)N2c1ccc(S(C)(=O)=O)cn1 [Example 272, 2-{[4-fluoro-3-(trifluoromethyl)phenyl]oxy}-2-methyl-N-{8-[5-(methylsulfonyl)pyridin-2-yl]-8-azabicyclo[3.2.1]oct-3-endo-yl}propanamide] was tested. Which IC50 did it give?
The IC50 was less than 2000 nM.

With CC(C)(Oc1ncc(Cl)cc1C(F)(F)F)C(=O)N[C@H]1C[C@H]2CC[C@@H](C1)N2c1ccc(C(=O)NCC(F)(F)F)cn1 [Example 273, 6-{3-endo-[(2-{[5-chloro-3-(trifluoromethyl)pyridin-2-yl]oxy}-2-methylpropanoyl)amino]-8-azabicyclo[3.2.1]oct-8-yl}-N-(2,2,2-trifluoroethyl)pyridine-3-carboxamide] as the compound, how does the IC50 read?
The IC50 was less than 200 nM.
